Experimental data reported in patent publication US20100029657A1, “Bridged, Bicyclic Heterocyclic or Spiro Bicyclic Heterocyclic Derivatives of Pyrazolo[1, 5-A]Pyrimidines, Methods for Preparation and Uses Thereof” (Wyeth, priority 2008, published 2010).

Target: T1, Flag/GST-tagged recombinant human B-Raf (Homo sapiens, UniProt P15056)
T1 construct: Flag; GST; made in house; host or cells: Sf9 insect cells (B-Raf); E. coli (MEK1-GST)
Assay: B-Raf kinase assay (phosphorylation of GST-MEK1, phospho-MEK1 antibody/Europium detection)
Type: biochemical
Conditions: B-Raf IC50 Data for compounds of Formula A; read-out: Mean IC50
Description: B-Raf1 Kinase Assay Procedure: B-Raf-1 is used to phosphorylate GST-MEK1.
• 1. Assay Dilution Buffer (ADB): 20 mM MOPS, pH 7.2, 25 mM β-glycerol phosphate, 5 mM EGTA, 1 mM sodium orthovanadate, 1 mM dithiothreitol, 0.01% Triton X-100. • 2. Magnesium/ATP Cocktail: ADB solution (minus Triton X-100) plus 200 μM cold ATP and 40 mM magnesium chloride. • 4. Active Kinase: Active B-Raf: Used at 0.2 nM per assay point. • 5. […] TBST—Tris (50 mM, pH 7.5), NaCl (150 mM), Tween-20 (0.05%) • 7. Anti-GST Ab (GE) • 8. Anti pMEK Ab (Upstate) • 9. Anti-rabbit Ab/Europium conjugate (Wallac).
B-Raf Assay Procedure: • 1. Added 25 μL of ADB containing B-Raf and Mek per assay (i.e. per well of a 96 well plate) • 2. Added 25 μL of 0.2 mM ATP and 40 mM magnesium chloride in Magnesuium/ATP Cocktail. • 3. Incubated for 45 minutes at RT with occasional shaking. • 4. Transferred this mixture to an anti-GST Ab coated 96 well plate (Nunc Immunosorb plates coated o/n with a-GST. Plate freshly washed 3×with TBS-T before use. • 5. Incubated o/n at […] in cold room. • 6. Washed 3× with TBST, ed Anti-Phospho MEK1 (1:1000, dilution depended upon lot) • 7. Incubated for 60 minutes at RT in a shaking incubator • 8. Washed 3× with TBST, add Anti-rabbit Ab/Europium conjugate (Wallac) (1:500, dilution depended upon lot) • 9. Incubated for 60 minutes at RT on a platform shaker. • 10. Washed plate 3× with TBS-T • 11. Added 100 μL of Wallac Delfia Enhancement Solution and agitated for 10 minutes. • 12. Read plates in Wallac Victor model Plate Reader. • 13.
The % inhibition was determined for each compound concentration.

T1 sequence (P15056 whole entry): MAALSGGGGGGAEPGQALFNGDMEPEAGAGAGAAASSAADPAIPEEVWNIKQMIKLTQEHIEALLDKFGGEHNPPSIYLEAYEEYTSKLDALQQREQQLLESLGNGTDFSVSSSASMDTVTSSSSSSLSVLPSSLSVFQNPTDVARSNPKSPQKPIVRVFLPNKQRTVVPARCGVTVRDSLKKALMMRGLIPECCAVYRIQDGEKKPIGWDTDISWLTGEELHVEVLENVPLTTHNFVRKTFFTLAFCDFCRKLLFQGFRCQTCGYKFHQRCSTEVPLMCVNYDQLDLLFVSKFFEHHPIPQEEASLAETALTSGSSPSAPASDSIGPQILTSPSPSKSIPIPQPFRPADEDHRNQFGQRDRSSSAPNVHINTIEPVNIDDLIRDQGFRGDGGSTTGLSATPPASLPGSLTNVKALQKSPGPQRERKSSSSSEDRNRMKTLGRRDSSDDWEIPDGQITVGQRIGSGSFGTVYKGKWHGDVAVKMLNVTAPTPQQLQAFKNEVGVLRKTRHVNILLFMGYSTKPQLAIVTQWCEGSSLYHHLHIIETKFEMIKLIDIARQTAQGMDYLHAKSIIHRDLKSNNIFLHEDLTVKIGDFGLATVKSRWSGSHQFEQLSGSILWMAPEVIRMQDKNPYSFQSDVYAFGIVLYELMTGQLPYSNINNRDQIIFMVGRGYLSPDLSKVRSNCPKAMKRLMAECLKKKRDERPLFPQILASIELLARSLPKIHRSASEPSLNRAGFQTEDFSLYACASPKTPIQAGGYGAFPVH

Compound | IC50 [nM]
Oc1cccc(-c2c(-c3ccncc3)nn3c(-c4ccc(NCC56CCN(CC5)CC6)nc4)ccnc23)c1 [Example 1, 3-(7-{6-[(1-Azabicyclo[2.2.2]oct-4-ylmethyl)amino]pyridin-3-yl}-2-pyridin-4-ylpyrazolo[1,5-a]pyrimidin-3-yl)phenol] | 2
Oc1cccc(-c2c(-c3ccncc3)nn3c(-c4ccc(N[C@@H]5CN6CCC5CC6)nc4)ccnc23)c1 [Example 2, 3-(7-{6-[(3S)-1-Azabicyclo[2.2.2]oct-3-ylamino]pyridin-3-yl}-2-pyridin-4-ylpyrazolo[1,5-a]pyrimidin-3-yl)phenol] | 2
Oc1cccc(-c2c(-c3ccncc3)nn3c(-c4ccc(N[C@H]5CN6CCC5CC6)nc4)ccnc23)c1 [Example 3, 3-(7-{6-[(3R)-1-Azabicyclo[2.2.2]oct-3-ylamino]pyridin-3-yl}-2-pyridin-4-ylpyrazolo[1,5-a]pyrimidin-3-yl)phenol] | 1
COc1cc(-c2c(-c3ccncc3)nn3c(-c4ccc(NC5CN6CCC5CC6)nc4)ccnc23)ccc1Cl [Example 5, 5-(7-{6-[(3R)-1-Azabicyclo[2.2.2]oct-3-ylamino]pyridin-3-yl}-3-(4-chloro-3-methoxyphenyl)-2-pyridin-4-ylpyrazolo[1,5-a]pyrimidine] | 6
Oc1cccc(-c2c(-c3ccncc3)nn3c(NCC45CCN(CC4)CC5)ccnc23)c1 [Example 6] | 57
CCOC(=O)N1C2CCC1CC(c1ccnc3c(-c4cccc(OC)c4)c(-c4ccncc4)nn13)C2 (stereo not shown) [Example 7, Ethyl 3-(3-(3-methoxyphenyl)-2-(pyridin-4-yl)pyrazolo[1,5-a]pyrimidin-7-yl)-8-azabicyclo[3.2.1]octane-8-carboxylate] | 87
CCOC(=O)N1C2CCC1CC(c1ccnc3c(-c4cccc(O)c4)c(-c4ccncc4)nn13)C2 (stereo not shown) [Example 8, Ethyl 3-(3-(3-hydroxyphenyl)-2-(pyridin-4-yl)pyrazolo[1,5-a]pyrimidin-7-yl)-8-azabicyclo[3.2.1]octane-8-carboxylate] | 1
Oc1cccc(-c2c(-c3ccncc3)nn3c(C4CC5CCC(C4)N5)ccnc23)c1 (stereo not shown) [Example 9, 3-(7-(8-Azabicyclo[3.2.1]octan-3-yl)-2-(pyridin-4-yl)pyrazolo[1,5-a]pyrimidin-3-yl)phenol] | 4
CCOC(=O)N1C2CCC1CC(c1ccnc3c(-c4ccc(Cl)c(OC)c4)c(-c4ccncc4)nn13)C2 (stereo not shown) [Example 10, Ethyl 3-(3-(4-chloro-3-methoxyphenyl)-2-(pyridin-4-yl)pyrazolo[1,5-a]pyrimidin-7-yl)-8-azabicyclo[3.2.1]octane-8-carboxylate] | 54
Oc1cc(-c2c(-c3ccncc3)nn3c(C4CC5CCC(C4)N5)ccnc23)ccc1Cl (stereo not shown) [Example 12, 5-(7-(8-Azabicyclo[3.2.1]octan-3-yl)-2-(pyridin-4-yl)pyrazolo[1,5-a]pyrimidin-3-yl)-2-chlorophenol] | 0.4
CC(=O)N1C2CCC1CC(c1ccnc3c(-c4ccc(Cl)c(O)c4)c(-c4ccncc4)nn13)C2 (stereo not shown) [Example 13, 5-[7-(8-Acetyl-8-azabicyclo[3.2.1]oct-3-yl)-2-pyridin-4-ylpyrazolo[1,5-a]pyrimidin-3-yl]-2-chlorophenol] | 0.3
CCN1C2CCC1CC(c1ccnc3c(-c4ccc(Cl)c(OC)c4)c(-c4ccncc4)nn13)C2 (stereo not shown) [Example 17, 3-(4-Chloro-3-methoxyphenyl)-7-(8-ethyl-8-azabicyclo[3.2.1]oct-3-yl)-2-pyridin-4-ylpyrazolo[1,5-a]pyrimidine] | 44
COc1cccc(-c2c(-c3ccncc3)nn3c(C4CC5CCC(C4)N5)ccnc23)c1 (stereo not shown) [Example 19, 7-(8-Azabicyclo[3.2.1]oct-3-yl)-3-(3-methoxyphenyl)-2-pyridin-4-ylpyrazolo[1,5-a]pyrimidine] | 71

Second part, the compound after the results:

IC50 [nM] | Compound
39.9 | c1cc(-c2c(-c3ccncc3)nn3c2nccc3[C@H]2CC[C@@H](N3C4CCC3COC4)CC2)c2cn[nH]c2c1 (relative stereo) [Example 150, 3-(1H-indazol-4-yl)-7-[cis-4-(3-oxa-8-azabicyclo[3.2.1]oct-8-yl)cyclohexyl]-2-pyridin-4-ylpyrazolo[1,5-a]pyrimidine]
6.4 | c1cc(-c2c(-c3ccncc3)nn3c2nccc3[C@H]2CC[C@H](N3C4CCC3COC4)CC2)c2cn[nH]c2c1 (relative stereo) [Example 151, 3-(1H-indazol-4-yl)-7-[trans-4-(3-oxa-8-azabicyclo[3.2.1]oct-8-yl)cyclohexyl]-2-pyridin-4-ylpyrazolo[1,5-a]pyrimidine]
6.4 | c1cc(-c2c(-c3ccncc3)nn3c2nccc3[C@H]2CC[C@@H](N3CC4CCC(C3)O4)CC2)c2cn[nH]c2c1 (relative stereo) [Example 152, 3-(1H-indazol-4-yl)-7-[cis-4-(8-oxa-3-azabicyclo[3.2.1]oct-3-yl)cyclohexyl]-2-pyridin-4-ylpyrazolo[1,5-a]pyrimidine]
3.7 | c1cc(-c2c(-c3ccncc3)nn3c2nccc3[C@H]2CC[C@H](N3CC4CCC(C3)O4)CC2)c2cn[nH]c2c1 (relative stereo) [Example 153, 3-(1H-indazol-4-yl)-7-[trans-4-(8-oxa-3-azabicyclo[3.2.1]oct-3-yl)cyclohexyl]-2-pyridin-4-ylpyrazolo[1,5-a]pyrimidine]
8.6 | Fc1ccc(-c2c(-c3ccncc3)nn3c2nccc3[C@H]2CC[C@@H](N3CC4CCC(C3)O4)CC2)c2cn[nH]c12 (relative stereo) [Example 179, 3-(7-fluoro-1H-indazol-4-yl)-7-[cis-4-(8-oxa-3-azabicyclo[3.2.1]oct-3-yl)cyclohexyl]-2-pyridin-4-ylpyrazolo[1,5-a]pyrimidine]
1.8 | Fc1ccc(-c2c(-c3ccncc3)nn3c2nccc3[C@H]2CC[C@H](N3CC4CCC(C3)O4)CC2)c2cn[nH]c12 (relative stereo) [Example 180, 3-(7-fluoro-1H-indazol-4-yl)-7-[trans-4-(8-oxa-3-azabicyclo[3.2.1]oct-3-yl)cyclohexyl]-2-pyridin-4-ylpyrazolo[1,5-a]pyrimidine]
2.1 | Fc1ccc(-c2c(-c3ccncc3)nn3c2nccc3[C@H]2CC[C@@H](N3C4CCC3COC4)CC2)c2cn[nH]c12 (relative stereo) [Example 181, 3-(7-fluoro-1H-indazol-4-yl)-7-[cis-4-(3-oxa-8-azabicyclo[3.2.1]oct-8-yl)cyclohexyl]-2-pyridin-4-ylpyrazolo[1,5-a]pyrimidine]
1.3 | Fc1ccc(-c2c(-c3ccncc3)nn3c2nccc3[C@H]2CC[C@H](N3C4CCC3COC4)CC2)c2cn[nH]c12 (relative stereo) [Example 182, 3-(7-fluoro-1H-indazol-4-yl)-7-[trans-4-(3-oxa-8-azabicyclo[3.2.1]oct-8-yl)cyclohexyl]-2-pyridin-4-ylpyrazolo[1,5-a]pyrimidine]
2 | CCOC(=O)N1C2CCC1CC(c1ccnc3c(-c4ccc(Cl)c(O)c4)c(-c4ccncc4)nn13)C2 (stereo not shown) [Example 11, Ethyl 3-(3-(4-chloro-3-hydroxyphenyl)-2-(pyridin-4-yl)pyrazolo[1,5-a]pyrimidin-7-yl)-8-azabicyclo[3.2.1]octane-8-carboxylate]
2 | CS(=O)(=O)N1C2CCC1CC(c1ccnc3c(-c4ccc(Cl)c(O)c4)c(-c4ccncc4)nn13)C2 (stereo not shown) [Example 14, 2-Chloro-5-{7-[8-(methylsulfonyl)-8-azabicyclo[3.2.1]oct-3-yl]-2-pyridin-4-ylpyrazolo[1,5-a]pyrimidin-3-yl}phenol]
10 | CC(=O)Oc1cc(-c2c(-c3ccncc3)nn3c(C4CC5CCC(C4)N5C(C)=O)ccnc23)ccc1Cl (stereo not shown) [Example 15, 5-[7-(8-Acetyl-8-azabicyclo[3.2.1]oct-3-yl)-2-pyridin-4-ylpyrazolo[1,5-a]pyrimidin-3-yl]-2-chlorophenyl acetate]
9 | COc1cc(-c2c(-c3ccncc3)nn3c(C4CC5CCC(C4)N5)ccnc23)ccc1Cl (stereo not shown) [Example 16, 7-(8-Azabicyclo[3.2.1]oct-3-yl)-3-(4-chloro-3-methoxyphenyl)-2-pyridin-4-ylpyrazolo[1,5-a]pyrimidine]
0.6 | CCN1C2CCC1CC(c1ccnc3c(-c4ccc(Cl)c(O)c4)c(-c4ccncc4)nn13)C2 (stereo not shown) [Example 18, 2-Chloro-5-[7-(8-ethyl-8-azabicyclo[3.2.1]oct-3-yl)-2-pyridin-4-ylpyrazolo[1,5-a]pyrimidin-3-yl]phenol]
835 | CCN1C2CCC1CC(c1ccnc3c(-c4ccnc(OC)c4)c(-c4ccncc4)nn13)C2 (stereo not shown) [Example 20, 7-(8-Ethyl-8-azabicyclo[3.2.1]octan-3-yl)-3-(2-methoxypyridin-4-yl)-2-(pyridin-4-yl)pyrazolo[1,5-a]pyrimidine]
> 1000 | CCN1C2CCC1CC(c1ccnc3c(-c4ccnc(O)c4)c(-c4ccncc4)nn13)C2 (stereo not shown) [Example 21, 4-(7-(8-Ethyl-8-azabicyclo[3.2.1]octan-3-yl)-2-(pyridin-4-yl)pyrazolo[1,5-a]pyrimidin-3-yl)pyridin-2-ol]
